Blank lines part the entries; values can stand above or below the compound they belong to.
How the values were obtained:
[1] = in vivo; cited from earlier work
[2] = dosed either orally or directly into the colon of a mammal; cited from earlier work
[3] = clinical trials (Castell et al.); cited from earlier work
[4] = Pharmacokinetics of R-baclofen in dogs after oral dosage forms of compound (1); design: species or system Beagle dogs; settings: dog, in vivo, iv, 10 mg-eq/kg R-baclofen administered intravenously
Experimental: The dogs were fasted overnight before the study and for 4 hours post-dosing. Blood samples (1 mL) were obtained via the femoral vein at intervals over 24 hours after oral dosing. Blood was quenched immediately using acetonitrile with 1% formic acid and then frozen at −20° C. until analyzed.
The concentration of R-baclofen in quenched whole blood was determined using an API 2000 LC/MS/MS instrument equipped with a Shimadzu binary pump and a Leap CTC autosampler. A Phenomenex Hydro-RP 4.6×50 mm column operating at room temperature was used. The mobile phases were (A) water with 0.1% formic acid, and (B) acetonitrile with 0.1% formic acid. The gradient condition was: 5% B for 0.5 min, then to 95% B in 1.8 min; then maintained at 95% B for 1.2 min. The mobile phase was then returned to 5% B for 2 min. A TurbolonSpray source was used on the API 2000. The analysis was done in positive ion mode and an MRM transition of m/z 214/151 was used in the analysis of R-baclofen. Ten (10) μL of the blood sample was injected. The peaks were integrated using Analyst™ Software ([…]) to provide the concentration of R-baclofen in the blood sample.
Pharmacokinetic profiles of sustained release oral dosage forms prepared according to Examples 1-4 at a dose of 10 mg compound (1) following oral administration to dogs is shown in FIG. 5.

[5] = 2 mg t.i.d. R-baclofen equivalent to racemic baclofen 10 mg t.i.d.; cited from earlier work

Structure (SMILES): NCC(CC(=O)O)c1ccc(Cl)cc1 (racemic) [baclofen, (±)-4-Amino-3-(4-chlorophenyl)butanoic acid]
elimination half-life [1]: 3 to 4 h

Structure (SMILES): CC(C)C(=O)O[C@@H](OC(=O)NC[C@H](CC(=O)O)c1ccc(Cl)cc1)C(C)C [Compound (1), (3R)-4-{[(1S)-2-methyl-1-(2-methylpropanoyloxy)propoxy]carbonylamino}-3-(4-chlorophenyl)butanoic acid]
bioavailability as R-baclofen [2]: high bioavailability
reflux episodes in clinical trials [3]: reduce reflux episodes

AUC(0-inf) [4]: 1980 ng·h/mL
Structure (SMILES): NC[C@H](CC(=O)O)c1ccc(Cl)cc1 [R-baclofen, R-(−)-baclofen]
potency of orally administered R-baclofen relative to orally administered racemic baclofen [5]: about 5 times

— patent US20080206332A1, “SUSTAINED RELEASE ORAL DOSAGE FORMS OF A PRODRUG OF R-BACLOFEN AND METHODS OF TREATMENT” (priority 2007, published 2008)
